Test results taken from patent publication US20240327417A1, “HETEROCYCLIC COMPOUNDS” (BeiGene Switzerland GmbH, priority 2021, published 2024).

What was measured:
[1] = molecular target: T1, Full length DGKζ (in-house protein M1-V929) (Homo sapiens, UniProt Q13574); test: Biochemical DGK IC50 assay (ADP-Glo, lipid micelle substrate), DGKζ; settings: 0.5 nM enzyme, 140 μM ATP, 80 μM DAG, 1 hour preincubation, 1 hour reaction, room temperature, read-out: IC50s for DGKζ
T1 construct: His (N); TEV cleavage site (N); made in house; host or cells: Sf9 insect cells (baculovirus, Bac-to-Bac)
Method: (§1) Enzymatic reactions of DGKζ, DGKα and DGKδ were performed using ADP-Glo assay with lipid micelle substrate. […] Full length DGKα (D21-10BG, SignalChem) and full length DGKδ (D23-10G, SignalChem) were purchased. Lipid micelle was prepared by dissolving DAG (Sigma, 317505-10MG) and PS (Sigma, P7769-100MG) with chloroform which was firtherly removed by rotary evaporation. The obtained residue was resuspended in buffer containing 25 mM HEPES pH 7.0, 0.5 mM EDTA and 160 mM Octyl β-D glucopyranoside by vigorous mixing and ultrasonic (IID, Scientz).
(§2) The inhibition activities testing for the compound disclosed herein were carried out at room temperature in assay buffer containing 50 mM HEPES, 10 mM MgCl2, 0.01% BSA, 0.1 mM Na3VO4, 0.005% Tween-20 and 0.01 mM CaCl2. Compounds in DMSO were dispensed into wells of a black 384 well plate (Corning 4514) using D300e digital dispenser (Tecan). The ranges of compounds final concentration were 1.55˜10000 nM or 23.3˜150000 nM. 3 μL 2× enzyme solution was added to wells. […] After 1 hour reaction, 5 μL ADP-Glo reagent (Promga V9101) was added and incubated for 40 minutes. 10 μL Kinase Detection reagent was added and incubated for 30 minutes. Luminescence was measured on a microplate reader (PHERAstar FSX, BMG labtech). The IC50s are calculated based on inhibition of enzyme activity in the presence of increasing concentrations of compounds.
Human His-TEV-DGK-zeta-pFastBac1 and human baculovirus samples was generated using the Bac-to-Bac baculovirus expression system (Invitrogen) according to the manufacturer's protocol. The DNA used for expression of DGK-zeta, have SEQ ID Nos: 1. Baculovirus amplification was achieved using infected SF9 cells at 1:2000 virus/cells ratios, and grown for 96 hours at 27° C. post-transfected.
The expression scaled up for each protein was carried out in the […] from CORNING. 4 L of 3×10^6 cells/mL Sf9 cells (Expression System, Invitrogen) grown in SF900™ II SFM insect medium (Expression System) was infected with virus stock at 1:200 virus/cells ratio, and grown for 48 hours at 27° C. post-transfection. The infected cell culture was harvested by centrifugation at 6000 rpm for 15 min 4° C. in a SORVALL LYNX6000 centrifuge. The cell pellets were stored at −80° C.
Full length human DGKζ produced as described above, was purified from Sf9 baculovirus-infected insect cell paste. The cells were lysed using sonication method, and the lysates were clarified by centrifugation.

[2] = molecular target: T2, Full length DGKα (D21-10BG, SignalChem) (Homo sapiens, UniProt P23743); test: Biochemical DGK IC50 assay (ADP-Glo, lipid micelle substrate), DGKα; settings: 7.5 nM enzyme, 140 μM ATP, 80 μM DAG, 1 hour preincubation, 1 hour reaction, room temperature, read-out: IC50s for DGKα
T2 construct: Full length DGKα (D21-10BG, SignalChem); purchased SignalChem D21-10BG
Method: as §1, §2

T2 sequence (P23743 whole entry): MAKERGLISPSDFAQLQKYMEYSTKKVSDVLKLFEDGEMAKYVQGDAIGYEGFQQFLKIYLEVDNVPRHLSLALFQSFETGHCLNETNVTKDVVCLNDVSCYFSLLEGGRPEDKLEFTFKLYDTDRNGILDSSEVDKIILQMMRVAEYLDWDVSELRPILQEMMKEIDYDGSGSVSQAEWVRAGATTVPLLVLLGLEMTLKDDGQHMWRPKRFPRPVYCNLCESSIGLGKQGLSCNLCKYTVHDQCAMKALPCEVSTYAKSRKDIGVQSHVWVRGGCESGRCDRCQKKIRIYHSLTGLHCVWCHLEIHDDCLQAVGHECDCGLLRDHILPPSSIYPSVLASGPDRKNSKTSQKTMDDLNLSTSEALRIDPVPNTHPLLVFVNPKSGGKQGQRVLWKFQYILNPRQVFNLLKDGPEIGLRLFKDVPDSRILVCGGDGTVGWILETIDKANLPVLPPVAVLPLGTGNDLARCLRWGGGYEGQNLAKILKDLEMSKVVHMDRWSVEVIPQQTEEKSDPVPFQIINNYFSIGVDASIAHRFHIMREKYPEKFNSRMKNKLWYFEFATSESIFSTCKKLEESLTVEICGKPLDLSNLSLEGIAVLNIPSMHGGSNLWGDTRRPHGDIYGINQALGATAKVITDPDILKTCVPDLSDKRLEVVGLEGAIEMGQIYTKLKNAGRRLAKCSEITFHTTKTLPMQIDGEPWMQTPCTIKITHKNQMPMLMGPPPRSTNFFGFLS
T1 sequence (Q13574 1-929 isoform Q13574-4): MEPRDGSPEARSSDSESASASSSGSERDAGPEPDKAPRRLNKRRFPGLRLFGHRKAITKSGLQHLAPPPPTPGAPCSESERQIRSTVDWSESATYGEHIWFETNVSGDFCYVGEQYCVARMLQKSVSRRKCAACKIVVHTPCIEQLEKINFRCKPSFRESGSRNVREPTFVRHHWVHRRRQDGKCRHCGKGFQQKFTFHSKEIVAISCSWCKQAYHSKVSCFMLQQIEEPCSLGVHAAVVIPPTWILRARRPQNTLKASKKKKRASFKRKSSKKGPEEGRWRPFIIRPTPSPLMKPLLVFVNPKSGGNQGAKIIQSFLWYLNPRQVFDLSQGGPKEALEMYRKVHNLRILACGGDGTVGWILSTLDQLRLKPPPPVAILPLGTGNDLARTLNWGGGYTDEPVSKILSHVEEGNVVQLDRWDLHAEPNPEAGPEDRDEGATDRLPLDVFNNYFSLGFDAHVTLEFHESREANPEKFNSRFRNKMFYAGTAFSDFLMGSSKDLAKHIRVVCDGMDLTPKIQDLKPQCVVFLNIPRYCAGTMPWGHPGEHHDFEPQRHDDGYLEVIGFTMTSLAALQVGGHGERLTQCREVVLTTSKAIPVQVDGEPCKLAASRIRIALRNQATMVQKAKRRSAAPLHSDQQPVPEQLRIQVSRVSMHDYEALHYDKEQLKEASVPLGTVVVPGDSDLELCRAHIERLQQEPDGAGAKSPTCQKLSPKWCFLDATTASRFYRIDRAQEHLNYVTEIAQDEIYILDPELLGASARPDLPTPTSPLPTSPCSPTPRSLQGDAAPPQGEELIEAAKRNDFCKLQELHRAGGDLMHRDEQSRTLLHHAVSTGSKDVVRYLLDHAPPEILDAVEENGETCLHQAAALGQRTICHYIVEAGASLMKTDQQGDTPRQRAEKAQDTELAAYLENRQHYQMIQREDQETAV

Row | Compound | IC50 [1] [nM] | IC50 [2] [nM]
1 | CC[C@H]1CN(C(C)c2ccc3nc(C)sc3n2)[C@H](CC)CN1c1c(C#N)c(=O)n(C)n2cc(CC#N)nc12 (single isomer, unassigned) [Compound A112b] | 118 | 60
2 | CC[C@@H]1CN(c2cc(=O)n(C)n3cc(C=NOC)nc23)[C@@H](C)CN1C(C)c1ccc2nccnc2c1 (single isomer, unassigned) [Compound A9c] | > 10000 | 2170
3 | CC[C@@H]1CN(c2cc(=O)n(C)n3cc(CC#N)nc23)[C@@H](C)CN1C(C)c1ccc2nc(C)sc2c1F (single isomer, unassigned) [Compound A63b] | 1790 | 5780
4 | CCC(c1ccc(C2CC2)nc1)N1C[C@H](CC)N(c2cc(=O)n(C)n3cc(CC#N)nc23)C[C@H]1CC (single isomer, unassigned) [Compound A89b] | 1010 | 1520
5 | CC[C@H]1CN(C(C)c2ccc3ncsc3n2)[C@H](CC)CN1c1c(C#N)c(=O)n(C)n2cc(CC#N)nc12 (stereo partly drawn) [Compound A114, 2-(cyanomethyl)-8-((2S,5R)-2,5-diethyl-4-(1-(thiazolo[5,4-b]pyridin-5-yl)ethyl)piperazin-1-yl)-5-methyl-6-oxo-5,6-dihydroimidazo[1,2-b]pyridazine-7-carbonitrile] | 127 | 68
6 | CC[C@H]1CN(C(C)c2ccc(OC(C)C)nc2)[C@H](CC)CN1c1cc(=O)n(C)n2cc(CC#N)nc12 (single isomer, unassigned) [Compound A45b] | 1060 | 835
7 | CC[C@@H]1CN(c2cc(=O)n(C)n3cc(CC#N)nc23)[C@@H](CC)CN1Cc1ccc(OC(F)(F)F)cc1 [Compound A36, 2-(8-((2S,5R)-2,5-diethyl-4-(4-(trifluoromethoxy)benzyl)piperazin-1-yl)-5-methyl-6-oxo-5,6-dihydroimidazo[1,2-b]pyridazin-2-yl)acetonitrile] | 241 | 14
8 | CC#CCc1cn2c(n1)c(N1C[C@@H](CC)N(C(C)c3ccc4nc(C)sc4n3)C[C@@H]1CC)cc(=O)n2C (single isomer, unassigned) [Compound A115a] | > 10000 | 288

The next molecules have a lower IC50 [1] than those just listed; values first:

Row | IC50 [1] [nM] | IC50 [2] [nM] | Compound
9 | 78 | 2000 | CC(c1ccc2nccnc2c1)N1C[C@H](C)N(c2cc(=O)n(C)n3cc(CC#N)nc23)C[C@H]1C (mixture of isomers) [Compound A1, 2-(8-((2S,5R)-2,5-dimethyl-4-(1-(quinoxalin-6-yl)ethyl)piperazin-1-yl)-5-methyl-6-oxo-5,6-dihydroimidazo[1,2-b]pyridazin-2-yl)acetonitrile]
10 | 25 | 121 | CC[C@H]1CN(C(C)c2ccc(C(C)(F)F)nc2)[C@H](CC)CN1c1cc(=O)n(C)n2cc(CC#N)nc12 (single isomer, unassigned) [Compound A90a]
11 | 18 | 36 | CC[C@H]1CN(C(C)c2ccc3scnc3c2)[C@H](CC)CN1c1cc(=O)n(C)n2cc(CC#N)nc12 (stereo partly drawn) [Compound A65, 2-(8-((2S,5R)-4-(1-(benzo[d]thiazol-5-yl)ethyl)-2,5-diethylpiperazin-1-yl)-5-methyl-6-oxo-5,6-dihydroimidazo[1,2-b]pyridazin-2-yl)acetonitrile]
12 | 48 | 3.3 | CC[C@H]1CN(C(C)c2ccc3cc(F)sc3n2)[C@H](CC)CN1c1cc(=O)n(C)n2cc(CC#N)nc12 (single isomer, unassigned) [Compound A105b]
13 | 4 | 11 | CC[C@H]1CN(C(C)c2ccc3ncsc3c2)[C@H](CC)CN1c1cc(=O)n(C)n2cc(CC#N)nc12 (single isomer, unassigned) [Compound A53a]
14 | 26 | 54 | CC[C@H]1CN(C(C)c2cc3scnc3cc2F)[C@H](CC)CN1c1cc(=O)n(C)n2cc(CC#N)nc12 (single isomer, unassigned) [Compound A59a]
15 | 21 | 43 | CC[C@H]1CN(C(C)c2ccc(C(C)C)nc2)[C@H](CC)CN1c1cc(=O)n(C)n2cc(CC#N)nc12 (single isomer, unassigned) [Compound A38a]
